Data set [1] can be described thus: Drug concentration in liquid formulations by liquid chromatography / HPLC. The data set is classed as physicochemical. The protocol: Table 8, shown below, summarizes the concentrations of the excipient, the co-solvents and the drug for four different liquid formulations in accordance with exemplary embodiments of the present invention.
In another exemplary embodiment, the liquid formulation of sirolimus comprises water and ethanol as co-solvents and Vitamin E TPGS as the excipient. The liquid formulation was created utilizing the following process. Two hundred milligrams of sirolimus and two grams of ethanol were added to a pre-weighed twenty milliliter scintillation vial. The vial was vortexed and sonicated until the sirolimus was completely dissolved. Approximately six hundred milligrams of Vitamin E TPGS was then added to the solution of ethanol and sirolimus. The vial was vortexed again until a clear yellowish solution was obtained. Nitrogen gas was then used to reduce the amount of ethanol in the vial to approximately two hundred twenty-nine milligrams. In a separate vial, three hundred milligrams of Vitamin E TPGS was dissolved in eleven milliliters of purified water while undergoing vortexing. The Vitamin E TPGS and water solution was then added to the first vial containing the sirolimus, Vitamin E TPGS and ethanol. The first vial was then vortexed vigorously and continuously for three minutes. […] The foam gradually disappeared after sitting at room temperature. […]

For data set [2], the system named is human smooth muscle cells. The experiment in a line: Cladribine Example: PDGF-stimulated cell proliferation, smooth muscle cells. Format: cell-based. The note with it: from the IC50 values. The protocol: To assess the ability of cladribine to prevent cell proliferation, human smooth muscle or endothelial cells (Clonetics, Walkersville, Md.) were seeded at a density of 2000 cells/cm^2 (approximately 3600 cells/well) into each well of 12-well plates and cultured with 1.5 ml of growth medium containing five percent fetal calf serum (FCS). After twenty-four hours, the growth medium was changed and fresh medium containing 10 ng/ml platelet-derived growth factor AB (PDGF AB; LIFE Technologies), as well as various concentrations of cladribine (0.001-10,000 nM) were added with triplicate wells. Medium was replaced with fresh cladribine-containing medium after three days. On day six, cells were detached by trypsinization to yield a cell suspension, lightly centrifuged to pellet and then counted manually using a Neubauer hemocytometer system. Cell viability was assessed by trypan blue exclusion.

Data set [3] has as its system human coronary artery smooth muscle cells. The data set is described as follows: Anti-proliferative activity in non-synchronized cultured cells stimulated with two percent fetal bovine serum. The note with it: for effect on the anti-proliferative activity of rapamycin when added: non-synchronized cells, added to cells treated with rapamycin. The data set is classed as cell-based. The source says: The multiple curves represent various concentrations of mycophenolic acid ranging from zero to one thousand nanomolar concentrations. […] This potentiation observed in cultured coronary artery smooth muscle cells preferably translates to an enhancement in anti-restenotic efficacy following vascular injury and a reduction in the required amount of either agent to achieve the desired anti-restenotic effect.
FIG. 58 illustrates, in graphical format, the anti-proliferative activity of cladribine in non-synchronized cultured human coronary artery smooth muscle cells stimulated with two percent fetal bovine serum.
The multiple curves represent various concentrations of cladribine ranging from zero to nine hundred nanomolar concentrations. […] As illustrated, the percent inhibition increases substantially as the dose of cladribine increases.

Data set [4] shares this test system. The data set is described as follows: Anti-proliferative activity in synchronized cultured cells stimulated with two percent fetal bovine serum. Format: cell-based. The conditions noted are these: for effect on the anti-proliferative activity of rapamycin when added: added to cells treated with rapamycin. The source says:
(§1) The multiple curves represent various concentrations of topotecan ranging from zero to three hundred nanomolar concentrations.
(§2) The multiple curves represent various concentrations of etoposide ranging from zero to eight hundred nanomolar concentrations.
The multiple curves represent various concentrations of Panzem® ranging from zero to 100 micromolar concentrations.

The next data set has as its system cell viability. The experiment in a line: Cell viability assay. The data set is classed as cell-based.
From the text: as §1, §2

For data set [5], the system named is human coronary artery smooth muscle cell. The experiment in a line: MTS cytotoxicity assay. Format: cell-based. The conditions noted are these: concentrations up to 30,000.00 nanomolar, FIG. 69. The source says:
Typically, a control is utilized to determine baseline toxicity.
In general terms: Tetrazolium dyes change colour on reduction, which living cells bring about.

The next data set deals with tumor cell lines. The conditions noted are these: cited from earlier work.
Data set [6] has as its system human coronary artery smooth muscle cell. The experiment in a line: In vitro cell culture study of coronary artery smooth muscle cell proliferation. The data set is classed as cell-based. From the text: FIG. 51 is a graph of the inhibition of coronary artery smooth muscle cells by trichostatin A in a cell culture study.

With `CO[C@H]1C[C@@H]2CC[C@@H](C)[C@@](O)(O2)C(=O)C(=O)N2CCCC[C@H]2C(=O)O[C@H]([C@H](C)C[C@@H]2CC[C@@H](OC(=O)C(C)(CO)CO)[C@H](OC)C2)CC(=O)[C@H](C)/C=C(\C)[C@@H](O)[C@@H](OC)C(=O)[C@H](C)C[C@H](C)/C=C/C=C/C=C/1C` [CCI-779], in data set [1] (ethanol (less than two percent), Vitamin E TPGS and water), the “concentration in the final solution (HPLC assay)” value came out at 15000 µg/mL.

For `Nc1nc(Cl)nc2c1ncn2[C@H]1C[C@H](O)[C@@H](CO)O1` [Cladribine, 2-chlorodeoxyadenosine], in data set [2], the “potency as inhibitor of smooth muscle cells relative to endothelial cells” value is reported as “approximately twice”. The “effect on the anti-proliferative activity of rapamycin when added” value (“effect” below) in data set [3] is “increases the percent inhibition of rapamycin alone”. In addition, the “inhibition of human coronary artery smooth muscle cell proliferation” value in data set [3] (non-synchronized, two percent fetal bovine serum, FIG. 58) is “completely inhibits”.

In the case of `COc1cc([C@@H]2c3cc4c(cc3[C@@H](O[C@@H]3O[C@@H]5CO[C@@H](C)O[C@H]5[C@H](O)[C@H]3O)[C@H]3COC(=O)[C@H]23)OCO4)cc(OC)c1O` [Etoposide, etoposide], the “effect” value in data set [4] was “increases the percent inhibition of rapamycin alone”. Also, in the data set on cell viability (concentrations up to ten micromolar), the cytotoxicity entry is reported as “non-cytotoxic”.

As to `COc1cc2c(cc1O)CC[C@@H]1[C@@H]2CC[C@]2(C)[C@@H](O)CC[C@@H]12` [Panzem®, 2-methoxyestradiol], the “cell survival (MTS assay)” value in data set [5] is given as “do not reduce human coronary artery smooth muscle cell survival”. In addition, the “inhibition of human coronary artery smooth muscle cell proliferation in vitro” value in data set [4] (FIG. 66) is on record as “extremely effective inhibitor”. Also, the “effect” value in data set [4] is on record as “increases the percent of inhibition of rapamycin alone”.

In the case of `CO[C@H]1C[C@@H]2CC[C@@H](C)[C@@](O)(O2)C(=O)C(=O)N2CCCC[C@H]2C(=O)O[C@H]([C@H](C)C[C@@H]2CC[C@@H](O)[C@H](OC)C2)CC(=O)[C@H](C)/C=C(\C)[C@@H](O)[C@@H](OC)C(=O)[C@H](C)C[C@H](C)/C=C/C=C/C=C/1C` [Rapamycin, rapamycin], the “concentration relative to the solubility of sirolimus in water” value in data set [1] (4 mg/ml formulation with PEG 200, ethanol and water) is “four hundred to about one thousand”.

Consider `CC[C@@]1(O)C(=O)OCc2c1cc1n(c2=O)Cc2cc3c(CN(C)C)c(O)ccc3nc2-1` [Topotecan, topotecan], for which the “effect” value in data set [4] was “increases the percent inhibition of rapamycin alone”. Further, the cytotoxicity entry in the data set with cell viability (concentrations up to one micromolar) was “non-cytotoxic”.

Regarding `COc1c(C)c2c(c(O)c1C/C=C(\C)CCC(=O)O)C(=O)OC2` [mycophenolic acid], the “effect” value in data set [3] was “potentiates the anti-proliferative activity of rapamycin”.

As for `CC(/C=C/C(=O)NO)=C\[C@@H](C)C(=O)c1ccc(N(C)C)cc1` [trichostatin A], the “anti-proliferative IC50” value in the data set on tumor cell lines is listed as “low nM range”. In addition, the IC50 in data set [6] (human coronary artery smooth muscle cell proliferation, read-out: anti-proliferative IC50) was about 6 nM. Besides, the “inhibition of human coronary artery smooth muscle cell proliferation” value in data set [6] (in vitro cell culture) is “completely inhibit”.

In general, IC50 refers to the concentration needed to halve the response being measured.
